pEC50, pIC50: −log10 of the molar value. Non-standard residues stand in square brackets, D forms with d. Residues, ends and D or L forms follow the SMILES beside them. *: point of attachment. Phe(4-Br) = N[C@@H](Cc1ccc(Br)cc1)C(=O)O; PEG7 = NCCOCCOCCOCCOCCOCCOCCOCCC(=O)O; Fmoc = O=C(OCC1c2ccccc2-c2ccccc21)*; NMeL = CN[C@@H](CC(C)C)C(=O)O; Nle = CCCC[C@H](N)C(=O)O; Cbz = O=C(OCc1ccccc1)*; Aib = CC(C)(N)C(=O)O
What was measured:
Apelin receptor [1] = target: T1, Apelin receptor (Homo sapiens, UniProt P35414); experiment: Activation of APJ receptor (unknown origin) expressed in Chem-5 cells assessed as stimulation of Ca2+ mobilization by Calcium 6-GF dye based fluorescence based assay; assay type: functional, cell-based
T1 sequence (P35414 whole entry): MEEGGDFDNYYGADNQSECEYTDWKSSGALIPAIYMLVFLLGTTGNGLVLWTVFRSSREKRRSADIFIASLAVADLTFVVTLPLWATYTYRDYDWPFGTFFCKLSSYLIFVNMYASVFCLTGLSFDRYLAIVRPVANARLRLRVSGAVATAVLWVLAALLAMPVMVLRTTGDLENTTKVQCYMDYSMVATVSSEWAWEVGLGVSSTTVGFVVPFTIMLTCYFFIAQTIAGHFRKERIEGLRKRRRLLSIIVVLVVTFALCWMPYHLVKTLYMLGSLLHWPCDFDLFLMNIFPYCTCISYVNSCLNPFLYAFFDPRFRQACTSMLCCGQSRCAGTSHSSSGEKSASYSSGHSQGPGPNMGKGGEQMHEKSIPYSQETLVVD

Apelin receptor [2] = target: T2, Apelin receptor (Rattus norvegicus, UniProt Q9JHG3); experiment: Displacement of [125I]-pyr-1-apelin-13 from EGFP-tagged wild-type rat apelin receptor expressed in CHO cell membranes by gamma counting method; parameters: species or system Cell membrane
T2 sequence (Q9JHG3 whole entry): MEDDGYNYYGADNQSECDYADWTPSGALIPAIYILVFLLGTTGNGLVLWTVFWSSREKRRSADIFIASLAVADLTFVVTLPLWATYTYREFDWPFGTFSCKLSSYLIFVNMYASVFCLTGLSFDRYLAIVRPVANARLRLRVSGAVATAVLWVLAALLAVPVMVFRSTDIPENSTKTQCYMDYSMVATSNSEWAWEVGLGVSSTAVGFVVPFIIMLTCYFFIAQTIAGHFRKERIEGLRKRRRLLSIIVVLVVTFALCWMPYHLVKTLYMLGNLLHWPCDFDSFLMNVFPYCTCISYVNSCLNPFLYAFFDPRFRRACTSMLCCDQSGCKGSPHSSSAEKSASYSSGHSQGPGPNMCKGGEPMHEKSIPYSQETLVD

[3] = Protein binding in 55% human plasma at 100 uM incubated for 3 hrs by LC/MS detection based equilibrium dialysis; assay type: ADME, cell-free; settings: 55% plasma, read-out: PPB (converted)
Mus musculus = experiment: Cardioprotective activity in C57BL/6 mouse assessed as reduction in mean arterial blood pressure at 1.4 uM/kg, iv measured after 15 mins relative to control; assay type: functional; settings: 0.25 h
[4] = Protein binding in 55% mouse plasma at 100 uM incubated for 3 hrs by LC/MS detection based equilibrium dialysis; assay type: ADME, cell-free; settings: 55% plasma, read-out: PPB (converted)
Heart [5] = experiment: Cardioprotective activity in mouse Langendorff heart perfusion and ischemia-reperfusion injury model assessed as maximum derivative of change in systolic blood pressure over time at 1 uM dosed at start of reperfusion for 10 mins; assay type: functional
Heart [6] = experiment: Cardioprotective activity in mouse Langendorff heart perfusion and ischemia-reperfusion injury model assessed as left ventricle developed pressure at 1 uM dosed at start of reperfusion for 10 mins; assay type: functional
[7] = Half life in mouse plasma at 400 uM by HPLC analysis; assay type: ADME, cell-free
[8] = Lipophilicity, log D of the compound in pH 7.4 PBS by LC/MS detection based shake flask assay; assay type: physicochemical
[9] = Half life in human plasma at 400 uM by HPLC analysis; assay type: ADME, cell-free

SMILES: CCCC[C@H](NC(=O)[C@@H]1CCCN1C(=O)CNC(=O)[C@H](CCCCN)NC(=O)[C@H](Cc1c[nH]cn1)NC(=O)[C@H](CO)NC(=O)[C@H](CC(C)C)N(C)C(=O)[C@H](CCCNC(=N)N)NC(=O)[C@@H]1CCCN1C(=O)[C@H](CCCNC(=N)N)NC(=O)[C@H](CCC(N)=O)NC(=O)[C@H](CCCNC(=N)N)NC(=O)[C@H](CCCNC(=N)N)NC(=O)[C@H](Cc1ccccc1)NC(=O)[C@H](CCCCN)NC(=O)CCOCCOCCOCCOCCOCCOCCOCCNC(=O)OCC1c2ccccc2-c2ccccc21)C(=O)NC(C)(C)C(=O)N[C@@H](Cc1ccc(Br)cc1)C(=O)O ({Fmoc-PEG7}-KFRRQRPR[NMeL]SHKGP[Nle][Aib][Phe(4-Br)]-OH)
- pEC50 (Apelin receptor [1]): 8.60
- pIC50 (Apelin receptor [2]): 9.26
- fraction unbound at 3 h, 100 µM [3]: 0.06
- Activity (Mus musculus): 47 mmHg
- fraction unbound at 3 h, 100 µM [4]: 0.11
- dP/dt max (Heart [5]): 2050 mmHg/s
- Activity (Heart [6]): 90 mmHg
- half-life at 400 µM [7]: 2.8 h
- logD [8]: -1.45
- half-life at 400 µM [9]: 27 h

SMILES: CCCC[C@H](NC(=O)[C@@H]1CCCN1C(=O)CNC(=O)[C@H](CCCCN)NC(=O)[C@H](Cc1c[nH]cn1)NC(=O)[C@H](CO)NC(=O)[C@H](CC(C)C)N(C)C(=O)[C@H](CCCNC(=N)N)NC(=O)[C@@H]1CCCN1C(=O)[C@H](CCCNC(=N)N)NC(=O)[C@H](CCC(N)=O)NC(=O)[C@H](CCCNC(=N)N)NC(=O)[C@H](CCCNC(=N)N)NC(=O)[C@H](Cc1ccccc1)NC(=O)[C@H](CCCCN)NC(=O)CCOCCOCCOCCOCCOCCOCCOCCNC(=O)OCc1ccccc1)C(=O)NC(C)(C)C(=O)N[C@@H](Cc1ccc(Br)cc1)C(=O)O ({Cbz-PEG7}-KFRRQRPR[NMeL]SHKGP[Nle][Aib][Phe(4-Br)]-OH)
- pEC50 (Apelin receptor [1]): 8.21
- pIC50 (Apelin receptor [2]): 8.72
- fraction unbound at 3 h, 100 µM [3]: 0.15
- Activity (Mus musculus): 43 mmHg
- fraction unbound at 3 h, 100 µM [4]: 0.17
- dP/dt max (Heart [5]): 2600 mmHg/s
- Activity (Heart [6]): 119 mmHg
- half-life at 400 µM [7]: 2.9 h
- logD [8]: -1.54
- half-life at 400 µM [9]: 18.2 h
